Measurements reported in patent US9682995B2, “Amino-substituted isothiazoles” (BAYER PHARMA AKTIENGESELLSCHAFT, priority 2013, dated 2017).

Columns and labels:
Test in all cases: Kinase Profiling (KINOMEscan)
Assay type in all cases: binding
[1] = molecular target: 456 kinases (of these 395 non-mutant kinases) (Homo sapiens, UniProt O75460); conditions: ERN1; 10 μM
[2] = molecular target: 456 kinases (of these 395 non-mutant kinases) (Homo sapiens, UniProt O95819); conditions: MAP4K4; 10 μM
[3] = molecular target: 456 kinases (of these 395 non-mutant kinases) (Homo sapiens, UniProt O95835); conditions: LATS1; 10 μM
[4] = molecular target: 456 kinases (of these 395 non-mutant kinases) (Homo sapiens, UniProt P00519); conditions: 10 μM
[5] = molecular target: 456 kinases (of these 395 non-mutant kinases) (Homo sapiens, UniProt P04629); conditions: TRKA; 10 μM
Sequence of 456 kinases (of these 395 non-mutant kinases) (Homo sapiens, UniProt P04629) (P04629 33-796 limits assumed, stated change not applied): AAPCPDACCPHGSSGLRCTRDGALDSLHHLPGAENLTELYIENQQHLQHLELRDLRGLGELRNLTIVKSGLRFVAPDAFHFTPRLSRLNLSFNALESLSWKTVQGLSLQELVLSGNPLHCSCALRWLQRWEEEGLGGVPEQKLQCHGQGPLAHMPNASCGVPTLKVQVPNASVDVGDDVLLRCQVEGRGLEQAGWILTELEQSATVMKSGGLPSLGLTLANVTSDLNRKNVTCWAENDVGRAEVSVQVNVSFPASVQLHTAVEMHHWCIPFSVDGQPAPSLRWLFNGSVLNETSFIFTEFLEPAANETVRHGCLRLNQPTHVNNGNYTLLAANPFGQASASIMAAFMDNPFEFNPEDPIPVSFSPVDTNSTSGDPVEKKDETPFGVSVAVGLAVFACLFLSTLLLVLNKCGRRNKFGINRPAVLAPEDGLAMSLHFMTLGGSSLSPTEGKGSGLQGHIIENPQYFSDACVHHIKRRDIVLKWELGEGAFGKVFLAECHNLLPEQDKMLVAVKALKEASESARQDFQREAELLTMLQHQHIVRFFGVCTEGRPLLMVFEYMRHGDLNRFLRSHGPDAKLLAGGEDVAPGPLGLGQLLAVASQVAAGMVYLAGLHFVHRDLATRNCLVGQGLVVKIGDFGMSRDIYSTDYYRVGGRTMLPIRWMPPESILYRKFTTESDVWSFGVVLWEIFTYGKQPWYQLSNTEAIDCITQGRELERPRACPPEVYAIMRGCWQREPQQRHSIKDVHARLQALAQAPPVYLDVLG

[6] = molecular target: 456 kinases (of these 395 non-mutant kinases) (Homo sapiens, UniProt P07949, V804M); conditions: RET(V804M); 10 μM
Sequence of 456 kinases (of these 395 non-mutant kinases) (Homo sapiens, UniProt P07949, V804M) (P07949 29-1114 V804M limits assumed): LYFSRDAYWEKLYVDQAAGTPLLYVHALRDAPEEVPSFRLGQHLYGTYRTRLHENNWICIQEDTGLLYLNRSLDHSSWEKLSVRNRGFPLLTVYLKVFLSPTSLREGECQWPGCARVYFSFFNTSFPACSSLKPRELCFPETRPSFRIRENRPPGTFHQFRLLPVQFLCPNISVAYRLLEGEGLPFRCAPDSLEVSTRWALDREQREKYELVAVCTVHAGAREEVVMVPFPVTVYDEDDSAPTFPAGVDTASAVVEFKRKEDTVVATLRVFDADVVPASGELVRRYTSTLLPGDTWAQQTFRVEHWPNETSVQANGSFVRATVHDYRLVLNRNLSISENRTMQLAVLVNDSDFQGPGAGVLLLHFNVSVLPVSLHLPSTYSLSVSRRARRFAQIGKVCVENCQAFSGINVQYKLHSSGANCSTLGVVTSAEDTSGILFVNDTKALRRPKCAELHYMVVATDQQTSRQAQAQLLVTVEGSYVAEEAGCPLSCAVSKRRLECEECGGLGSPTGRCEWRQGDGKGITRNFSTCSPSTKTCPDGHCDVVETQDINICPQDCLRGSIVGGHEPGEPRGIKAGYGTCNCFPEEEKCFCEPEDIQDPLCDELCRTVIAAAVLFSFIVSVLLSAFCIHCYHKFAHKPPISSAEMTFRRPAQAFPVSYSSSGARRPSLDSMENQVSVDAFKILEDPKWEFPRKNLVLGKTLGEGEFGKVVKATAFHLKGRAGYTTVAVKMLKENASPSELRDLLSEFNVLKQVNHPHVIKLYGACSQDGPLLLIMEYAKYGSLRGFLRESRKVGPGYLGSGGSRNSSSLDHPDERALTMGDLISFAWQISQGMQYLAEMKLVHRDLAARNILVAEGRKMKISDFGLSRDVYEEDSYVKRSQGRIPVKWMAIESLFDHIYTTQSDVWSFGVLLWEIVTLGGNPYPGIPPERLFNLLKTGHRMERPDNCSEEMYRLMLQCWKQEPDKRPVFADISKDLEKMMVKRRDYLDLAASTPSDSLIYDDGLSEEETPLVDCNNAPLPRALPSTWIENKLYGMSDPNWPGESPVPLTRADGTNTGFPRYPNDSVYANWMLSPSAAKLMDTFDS

[7] = molecular target: 456 kinases (of these 395 non-mutant kinases) (Homo sapiens, UniProt P30530); conditions: AXL; 10 μM
[8] = molecular target: 456 kinases (of these 395 non-mutant kinases) (Homo sapiens, UniProt P31751); conditions: AKT2; 10 μM
[9] = molecular target: 456 kinases (of these 395 non-mutant kinases) (Homo sapiens, UniProt P37173); conditions: TGFBR2; 10 μM
Sequence of 456 kinases (of these 395 non-mutant kinases) (Homo sapiens, UniProt P37173) (P37173 23-567 limits assumed, stated change not applied): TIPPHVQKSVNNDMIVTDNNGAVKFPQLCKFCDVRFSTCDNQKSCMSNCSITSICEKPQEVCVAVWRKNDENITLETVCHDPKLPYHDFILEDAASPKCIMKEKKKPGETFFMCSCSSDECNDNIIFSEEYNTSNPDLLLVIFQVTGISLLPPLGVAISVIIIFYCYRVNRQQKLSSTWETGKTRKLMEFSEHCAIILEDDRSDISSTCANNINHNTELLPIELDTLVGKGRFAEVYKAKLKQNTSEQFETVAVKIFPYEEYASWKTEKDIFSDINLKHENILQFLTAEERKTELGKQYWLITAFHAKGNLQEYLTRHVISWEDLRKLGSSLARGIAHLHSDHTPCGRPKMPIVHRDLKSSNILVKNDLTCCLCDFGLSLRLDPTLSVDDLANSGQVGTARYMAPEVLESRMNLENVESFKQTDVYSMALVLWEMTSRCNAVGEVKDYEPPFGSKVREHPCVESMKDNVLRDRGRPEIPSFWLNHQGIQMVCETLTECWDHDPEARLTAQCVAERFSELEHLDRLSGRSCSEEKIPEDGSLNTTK

[10] = molecular target: 456 kinases (of these 395 non-mutant kinases) (Homo sapiens, UniProt P42336, C420R); conditions: PIK3CA(C420R); 10 μM
[11] = molecular target: 456 kinases (of these 395 non-mutant kinases) (Homo sapiens, UniProt P42336, H1047L); conditions: PIK3CA(H1047L); 10 μM
[12] = molecular target: 456 kinases (of these 395 non-mutant kinases) (Homo sapiens, UniProt P42336, Q546K); conditions: PIK3CA(Q546K); 10 μM
[13] = molecular target: 456 kinases (of these 395 non-mutant kinases) (Homo sapiens, UniProt P42680); conditions: TEC; 10 μM
[14] = molecular target: 456 kinases (of these 395 non-mutant kinases) (Homo sapiens, UniProt P51956); conditions: NEK3; 10 μM
[15] = molecular target: 456 kinases (of these 395 non-mutant kinases) (Homo sapiens, UniProt P54760); conditions: EPHB4; 10 μM
Sequence of 456 kinases (of these 395 non-mutant kinases) (Homo sapiens, UniProt P54760) (P54760 16-987 limits assumed, change not shown): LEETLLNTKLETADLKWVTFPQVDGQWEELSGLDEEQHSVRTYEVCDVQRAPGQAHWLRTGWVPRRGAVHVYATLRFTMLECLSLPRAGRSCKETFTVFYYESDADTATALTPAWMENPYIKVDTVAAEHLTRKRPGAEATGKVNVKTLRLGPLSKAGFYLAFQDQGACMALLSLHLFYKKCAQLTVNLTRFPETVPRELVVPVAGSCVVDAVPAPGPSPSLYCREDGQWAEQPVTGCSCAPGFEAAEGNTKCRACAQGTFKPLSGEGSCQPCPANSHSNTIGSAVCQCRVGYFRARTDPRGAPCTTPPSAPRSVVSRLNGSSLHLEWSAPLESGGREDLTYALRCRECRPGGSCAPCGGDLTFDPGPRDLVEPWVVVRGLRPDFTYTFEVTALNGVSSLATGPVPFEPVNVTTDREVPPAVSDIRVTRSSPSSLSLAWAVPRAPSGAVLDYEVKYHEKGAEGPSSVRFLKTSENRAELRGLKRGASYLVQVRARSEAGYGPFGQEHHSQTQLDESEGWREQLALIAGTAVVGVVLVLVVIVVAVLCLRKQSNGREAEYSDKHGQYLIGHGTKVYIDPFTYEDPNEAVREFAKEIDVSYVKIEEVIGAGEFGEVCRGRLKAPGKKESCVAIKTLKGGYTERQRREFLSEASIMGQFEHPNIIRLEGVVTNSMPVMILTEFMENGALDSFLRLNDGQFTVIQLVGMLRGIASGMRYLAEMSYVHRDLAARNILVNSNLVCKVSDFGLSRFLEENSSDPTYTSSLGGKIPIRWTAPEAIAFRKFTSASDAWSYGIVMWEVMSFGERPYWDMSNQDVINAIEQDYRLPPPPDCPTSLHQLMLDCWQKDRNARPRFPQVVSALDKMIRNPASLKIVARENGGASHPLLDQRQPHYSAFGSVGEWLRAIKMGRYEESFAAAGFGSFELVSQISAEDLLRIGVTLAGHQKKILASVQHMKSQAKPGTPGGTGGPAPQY

[16] = molecular target: 456 kinases (of these 395 non-mutant kinases) (Homo sapiens, UniProt Q00526); conditions: CDK3; 10 μM
[17] = molecular target: 456 kinases (of these 395 non-mutant kinases) (Homo sapiens, UniProt Q05397); conditions: FAK; 10 μM
Sequence of 456 kinases (of these 395 non-mutant kinases) (Homo sapiens, UniProt Q05397) (Q05397 2-1052 limits assumed, change not shown): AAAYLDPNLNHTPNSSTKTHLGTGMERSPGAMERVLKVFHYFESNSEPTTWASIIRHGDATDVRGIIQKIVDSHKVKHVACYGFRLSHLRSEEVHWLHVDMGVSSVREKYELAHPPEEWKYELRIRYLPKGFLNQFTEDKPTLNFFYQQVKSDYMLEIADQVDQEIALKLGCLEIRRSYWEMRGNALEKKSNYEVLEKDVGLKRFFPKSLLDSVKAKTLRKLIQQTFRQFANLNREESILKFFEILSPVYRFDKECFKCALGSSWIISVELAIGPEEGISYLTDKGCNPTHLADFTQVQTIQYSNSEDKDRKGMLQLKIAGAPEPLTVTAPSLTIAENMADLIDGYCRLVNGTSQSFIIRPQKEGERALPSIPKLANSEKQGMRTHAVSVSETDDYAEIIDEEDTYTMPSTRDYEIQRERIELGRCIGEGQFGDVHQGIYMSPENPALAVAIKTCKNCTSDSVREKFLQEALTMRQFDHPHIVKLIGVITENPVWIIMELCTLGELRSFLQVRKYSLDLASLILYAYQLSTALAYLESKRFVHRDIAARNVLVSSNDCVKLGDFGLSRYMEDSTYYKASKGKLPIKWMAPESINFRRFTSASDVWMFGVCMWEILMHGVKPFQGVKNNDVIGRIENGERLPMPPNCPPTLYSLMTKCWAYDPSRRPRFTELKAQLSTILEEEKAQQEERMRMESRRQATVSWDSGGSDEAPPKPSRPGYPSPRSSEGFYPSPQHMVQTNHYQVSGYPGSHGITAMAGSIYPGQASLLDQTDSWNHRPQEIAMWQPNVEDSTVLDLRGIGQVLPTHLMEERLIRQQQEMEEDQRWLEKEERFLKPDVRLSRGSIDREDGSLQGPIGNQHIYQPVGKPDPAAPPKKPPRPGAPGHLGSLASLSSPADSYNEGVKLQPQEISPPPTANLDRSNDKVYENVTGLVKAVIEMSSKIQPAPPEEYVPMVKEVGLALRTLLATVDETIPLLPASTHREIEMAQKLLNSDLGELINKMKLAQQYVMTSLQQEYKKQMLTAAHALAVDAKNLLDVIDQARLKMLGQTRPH

[18] = molecular target: 456 kinases (of these 395 non-mutant kinases) (Homo sapiens, UniProt Q15759); conditions: p38-beta; 10 μM
[19] = molecular target: 456 kinases (of these 395 non-mutant kinases) (Homo sapiens, UniProt Q16539); conditions: p38-alpha; 10 μM
Sequence of 456 kinases (of these 395 non-mutant kinases) (Homo sapiens, UniProt Q16539) (Q16539 2-360 limits assumed, stated change not applied): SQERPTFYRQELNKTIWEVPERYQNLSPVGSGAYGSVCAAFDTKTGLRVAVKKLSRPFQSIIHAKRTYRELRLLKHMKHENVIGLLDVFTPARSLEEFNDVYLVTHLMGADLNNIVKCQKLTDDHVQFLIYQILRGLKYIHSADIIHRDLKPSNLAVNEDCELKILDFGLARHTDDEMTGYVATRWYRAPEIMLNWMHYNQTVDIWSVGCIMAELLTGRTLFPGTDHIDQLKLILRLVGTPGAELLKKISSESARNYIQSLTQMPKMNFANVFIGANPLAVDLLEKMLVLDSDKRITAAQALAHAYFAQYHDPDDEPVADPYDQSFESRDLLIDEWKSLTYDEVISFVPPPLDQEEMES

[20] = molecular target: 456 kinases (of these 395 non-mutant kinases) (Homo sapiens, UniProt Q5S007, G2019S); conditions: LRRK2(G2019S); 10 μM
[21] = molecular target: 456 kinases (of these 395 non-mutant kinases) (Homo sapiens, UniProt Q6ZN16); conditions: MAP3K15; 10 μM
[22] = molecular target: 456 kinases (of these 395 non-mutant kinases) (Homo sapiens, UniProt Q86UX6); conditions: YANK3; 10 μM
[23] = molecular target: 456 kinases (of these 395 non-mutant kinases) (Homo sapiens, UniProt Q8IWQ3); conditions: BRSK2; 10 μM
[24] = molecular target: 456 kinases (of these 395 non-mutant kinases) (Homo sapiens, UniProt Q8N568); conditions: DCAMKL2; 10 μM
[25] = molecular target: 456 kinases (of these 395 non-mutant kinases) (Homo sapiens, UniProt Q8N752); conditions: CSNK1A1L; 10 μM
[26] = molecular target: 456 kinases (of these 395 non-mutant kinases) (Homo sapiens, UniProt Q96L34); conditions: MARK4; 10 μM
[27] = molecular target: 456 kinases (of these 395 non-mutant kinases) (Homo sapiens, UniProt Q99759); conditions: MAP3K3; 10 μM
[28] = molecular target: 456 kinases (of these 395 non-mutant kinases) (Homo sapiens, UniProt Q9UIK4); conditions: DAPK2; 10 μM
[29] = molecular target: 456 kinases (of these 395 non-mutant kinases) (Homo sapiens, UniProt Q9UK32); conditions: 10 μM
[30] = molecular target: 456 kinases (of these 395 non-mutant kinases) (Homo sapiens, UniProt Q9UL54); conditions: TAOK2; 10 μM
[31] = molecular target: 456 kinases (of these 395 non-mutant kinases) (Homo sapiens, UniProt Q9Y6M4); conditions: CSNK1G3; 10 μM

CCc1ccccc1NC(=O)c1c(C)nsc1Nc1cnc2cc(F)ccc2n1 [Example 20, N-(2-Ethylphenyl)-5-[(6-fluoroquinoxalin-2-yl)amino]-3-methyl-1,2-thiazole-4-carboxamide]
% Ctrl @ 10 μM [1]: 100 % Ctrl
% Ctrl @ 10 μM [2]: 100 % Ctrl
% Ctrl @ 10 μM [3]: 100 % Ctrl
% Ctrl @ 10 μM ([4]; ABL1-nonphosphorylated): 100 % Ctrl
% Ctrl @ 10 μM ([4]; ABL1-phosphorylated): 100 % Ctrl
% Ctrl @ 10 μM [5]: 100 % Ctrl
% Ctrl @ 10 μM [6]: 100 % Ctrl
% Ctrl @ 10 μM [7]: 90 % Ctrl
% Ctrl @ 10 μM [8]: 90 % Ctrl
% Ctrl @ 10 μM [9]: 100 % Ctrl
% Ctrl @ 10 μM [10]: 96 % Ctrl
% Ctrl @ 10 μM [11]: 56 % Ctrl
% Ctrl @ 10 μM [12]: 66 % Ctrl
% Ctrl @ 10 μM [13]: 100 % Ctrl
% Ctrl @ 10 μM [14]: 97 % Ctrl
% Ctrl @ 10 μM [15]: 96 % Ctrl
% Ctrl @ 10 μM [16]: 100 % Ctrl
% Ctrl @ 10 μM [17]: 94 % Ctrl
% Ctrl @ 10 μM [18]: 100 % Ctrl
% Ctrl @ 10 μM [19]: 90 % Ctrl
% Ctrl @ 10 μM [20]: 92 % Ctrl
% Ctrl @ 10 μM [21]: 100 % Ctrl
% Ctrl @ 10 μM [22]: 67 % Ctrl
% Ctrl @ 10 μM [23]: 100 % Ctrl
% Ctrl @ 10 μM [24]: 98 % Ctrl
% Ctrl @ 10 μM [25]: 100 % Ctrl
% Ctrl @ 10 μM [26]: 100 % Ctrl
% Ctrl @ 10 μM [27]: 100 % Ctrl
% Ctrl @ 10 μM [28]: 73 % Ctrl
% Ctrl @ 10 μM ([29]; RSK4(Kin.Dom.1-N-terminal)): 100 % Ctrl
% Ctrl @ 10 μM ([29]; RSK4(Kin.Dom.2-C-terminal)): 75 % Ctrl
% Ctrl @ 10 μM [30]: 100 % Ctrl
% Ctrl @ 10 μM [31]: 70 % Ctrl
